“Also recorded” adds a separate entry of the source.
Assays:
[1] = target: Scenedesmus HPPD (Seq ID: 2) (Tetradesmus obliquus, UniProt A0A383WMN4, N195D); assay: In vitro HPPD activity assay; type: biochemical; settings: normalized on Arabidopsis wild-type HPPD (SEQ ID NO:42)
Description: (§1) HPPD produces homogentisic acid and CO2 from 4-hydroxyphenylpyruvate (4-HPP) and O2. The activity assay for HPPD is based on the analysis of homogentisic acid by reversed phase HPLC.
(§2) The assay mixture can contain 150 mM potassium phosphate buffer pH 7.0, 50 mM L-ascorbic acid, 100 μM Catalase (Sigma-Aldrich), 1 μM FeSO4 and 0.2 units of purified mutated HPPD enzyme in a total volume of 505 μl. 1 unit is defined as the amount of enzyme that is required to produce 1 nmol of HGA per minute at 20° C.
(§3) After a preincubation of 30 min the reaction is started by adding 4-HPP to a final concentration of 0.05 mM. The reaction is allowed to proceed for 45 min at room temperature. The reaction is stopped by the addition of 50 μl of 4.5 M phosphoric acid. The sample is filtered using a […] pore size PVDF filtration device.
(§4) 5 μl of the cleared sample is analyzed on an UPLC HSS T3 column (particle size 1.8 μm, dimensions 2.1×50 mm; Waters) by isocratic elution using 90% 20 mM NaH2PO4 pH 2.2, 10% methanol (v/v).
(§5) HGA is detected electrochemically at 750 mV (mode: DC; polarity: positive) and quantified by integrating peak areas (Empower software; Waters).
(§6) Inhibitors are dissolved in DMSO (dimethylsulfoxide) to a concentration of 0.5 mM. From this stock solution serial five-fold dilutions are prepared in DMSO, which are used in the assay. The respective inhibitor solution accounts for 1% of the assay volume. Thus, final inhibitor concentrations range from 5 μM to 320 pM, respectively. Activities are normalized by setting the uninhibited enzyme activity to 100%. IC50 values are calculated using non-linear regression.
(§7) Using methods which are described in the above examples or well known in the art, purified, recombinant mutated HPPD enzymes are characterized with respect to their kinetic properties and sensitivity towards HPPD inhibiting herbicides. Apparent michaelis constants (Km) and maximal reaction velocities (Vmax) are calculated by non-linear regression with the software GraphPad Prism 5 (GraphPad Software, La Jolla, USA) using a substrate inhibition model. Apparent kcat values are calculated from Vmax assuming 100% purity of the enzyme preparation. Weighted means (by standard error) of Km and IC50 values are calculated from at least three independent experiments. The Cheng-Prusoff equation for competitive inhibition (Cheng, Y. C.; Prusoff, W. H. Biochem Pharmacol 1973, 22, 3099-3108) is used to calculate dissociation constants (Ki).
(§8) Field performance of the HPPD enzyme, which is used as a herbicide tolerance trait may depend not only on its lack of sensitivity towards HPPD inhibiting herbicides but also on its activity. To assess the potential performance of a herbicide tolerance trait a tolerance index (TI) is calculated using the following formula: […]
(§9) Easy comparison and ranking of each trait is enabled by normalizing tolerance indexes on Arabidopsis wild-type HPPD.

[2] = target: Scenedesmus Short HPPD (Seq ID: 4) (Tetradesmus obliquus, UniProt A0A383WMN4, DEL398-433/N195D); assay: In vitro HPPD activity assay; type: biochemical; settings: normalized on Arabidopsis wild-type HPPD (SEQ ID NO:42)
Description: as §1, §2, §3, §4, §5, §6, §7, §8, §9

SoHPPD I419V (short) = assay: In vitro HPPD activity assay; type: biochemical, Scenedesmus obliquus; settings: normalized on Arabidopsis wild-type HPPD (SEQ ID NO:42)
Description: as §1, §2, §3, §4, §5, §6, §7, §8, §9

SoHPPD E379Q (short) = assay: In vitro HPPD activity assay; type: biochemical, Scenedesmus obliquus; settings: normalized on Arabidopsis wild-type HPPD (SEQ ID NO:42)
Description: as §1, §2, §3, §4, §5, §6, §7, §8, §9

SoHPPD H306K (short) = assay: In vitro HPPD activity assay; type: biochemical, Scenedesmus obliquus; settings: normalized on Arabidopsis wild-type HPPD (SEQ ID NO:42)
Description: as §1, §2, §3, §4, §5, §6, §7, §8, §9

SoHPPD I455V = assay: In vitro HPPD activity assay; type: biochemical, Scenedesmus obliquus; settings: normalized on Arabidopsis wild-type HPPD (SEQ ID NO:42)
Description: as §1, §2, §3, §4, §5, §6, §7, §8, §9

[3] = tested on: SoHPPD Q317H, A318G, E345Q; assay: In vitro HPPD activity assay; type: biochemical, Scenedesmus obliquus; settings: normalized on Arabidopsis wild-type HPPD (SEQ ID NO:42)
Description: as §1, §2, §3, §4, §5, §6, §7, §8, §9

SoHPPD V251A (short) = assay: In vitro HPPD activity assay; type: biochemical, Scenedesmus obliquus; settings: normalized on Arabidopsis wild-type HPPD (SEQ ID NO:42)
Description: as §1, §2, §3, §4, §5, §6, §7, §8, §9

SoHPPD F363I (short) = assay: In vitro HPPD activity assay; type: biochemical, Scenedesmus obliquus; settings: normalized on Arabidopsis wild-type HPPD (SEQ ID NO:42)
Description: as §1, §2, §3, §4, §5, §6, §7, §8, §9

SoHPPD E345Q (short) = assay: In vitro HPPD activity assay; type: biochemical, Scenedesmus obliquus; settings: normalized on Arabidopsis wild-type HPPD (SEQ ID NO:42)
Description: as §1, §2, §3, §4, §5, §6, §7, §8, §9

SoHPPD Q317H = assay: In vitro HPPD activity assay; type: biochemical, Scenedesmus obliquus; settings: normalized on Arabidopsis wild-type HPPD (SEQ ID NO:42)
Description: as §1, §2, §3, §4, §5, §6, §7, §8, §9

[4] = tested on: SoHPPD F39W, L367V, I375L (short); assay: In vitro HPPD activity assay; type: biochemical, Scenedesmus obliquus; settings: normalized on Arabidopsis wild-type HPPD (SEQ ID NO:42)
Description: as §1, §2, §3, §4, §5, §6, §7, §8, §9

SoHPPD Q317M (short) = assay: In vitro HPPD activity assay; type: biochemical, Scenedesmus obliquus; settings: normalized on Arabidopsis wild-type HPPD (SEQ ID NO:42)
Description: as §1, §2, §3, §4, §5, §6, §7, §8, §9

[5] = tested on: SoHPPD A318R, L350M (short); assay: In vitro HPPD activity assay; type: biochemical, Scenedesmus obliquus; settings: normalized on Arabidopsis wild-type HPPD (SEQ ID NO:42)
Description: as §1, §2, §3, §4, §5, §6, §7, §8, §9

SoHPPD L367V, I375L = assay: In vitro HPPD activity assay; type: biochemical, Scenedesmus obliquus; settings: normalized on Arabidopsis wild-type HPPD (SEQ ID NO:42)
Description: as §1, §2, §3, §4, §5, §6, §7, §8, §9

[6] = tested on: SoHPPD K326E, E345Q (short); assay: In vitro HPPD activity assay; type: biochemical, Scenedesmus obliquus; settings: normalized on Arabidopsis wild-type HPPD (SEQ ID NO:42)
Description: as §1, §2, §3, §4, §5, §6, §7, §8, §9

[7] = tested on: SoHPPD L367V, I375L (short); assay: In vitro HPPD activity assay; type: biochemical, Scenedesmus obliquus; settings: normalized on Arabidopsis wild-type HPPD (SEQ ID NO:42)
Description: as §1, §2, §3, §4, §5, §6, §7, §8, §9

[8] = tested on: SoHPPD A318P, A319P (short); assay: In vitro HPPD activity assay; type: biochemical, Scenedesmus obliquus; settings: normalized on Arabidopsis wild-type HPPD (SEQ ID NO:42)
Description: as §1, §2, §3, §4, §5, §6, §7, §8, §9

SoHPPD F363I = assay: In vitro HPPD activity assay; type: biochemical, Scenedesmus obliquus; settings: normalized on Arabidopsis wild-type HPPD (SEQ ID NO:42)
Description: as §1, §2, §3, §4, §5, §6, §7, §8, §9

[9] = tested on: SoHPPD Q317H, A318G, E345Q (short); assay: In vitro HPPD activity assay; type: biochemical, Scenedesmus obliquus; settings: normalized on Arabidopsis wild-type HPPD (SEQ ID NO:42)
Description: as §1, §2, §3, §4, §5, §6, §7, §8, §9

SoHPPD Q317H (short) = assay: In vitro HPPD activity assay; type: biochemical, Scenedesmus obliquus; settings: normalized on Arabidopsis wild-type HPPD (SEQ ID NO:42)
Description: as §1, §2, §3, §4, §5, §6, §7, §8, §9

SoHPPD A318R, L350M = assay: In vitro HPPD activity assay; type: biochemical, Scenedesmus obliquus; settings: normalized on Arabidopsis wild-type HPPD (SEQ ID NO:42)
Description: as §1, §2, §3, §4, §5, §6, §7, §8, §9

[10] = target: T1, Arabidopsis HPPD (Seq ID: 42) (Arabidopsis thaliana, UniProt P93836); assay: In vitro HPPD activity assay (homogentisic acid by HPLC); type: biochemical; settings: benchmark enzyme; normalized on Arabidopsis wild-type HPPD
T1 construct: His6; made in house; host or cells: E. coli BL21 (DE3)
T1 sequence (P93836 1-445): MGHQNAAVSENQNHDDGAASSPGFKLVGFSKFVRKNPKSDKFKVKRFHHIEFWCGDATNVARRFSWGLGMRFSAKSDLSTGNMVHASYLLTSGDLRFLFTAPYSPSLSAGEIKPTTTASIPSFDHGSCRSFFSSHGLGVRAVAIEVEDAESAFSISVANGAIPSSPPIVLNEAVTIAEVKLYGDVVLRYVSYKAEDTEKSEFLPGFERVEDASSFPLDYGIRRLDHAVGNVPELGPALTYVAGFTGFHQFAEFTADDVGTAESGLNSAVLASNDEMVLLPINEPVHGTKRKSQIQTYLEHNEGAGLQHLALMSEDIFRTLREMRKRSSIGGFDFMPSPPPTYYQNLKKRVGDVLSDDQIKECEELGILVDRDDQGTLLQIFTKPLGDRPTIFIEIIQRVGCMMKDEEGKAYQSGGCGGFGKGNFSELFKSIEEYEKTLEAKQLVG
Description: as §1, §2, §3, §4, §5
Inhibitors are dissolved in DMSO (dimethylsulfoxide) to a concentration of 0.5 mM. From this stock solution serial five-fold dilutions are prepared in DMSO, which are used in the assay. The respective inhibitor solution accounts for 1% of the assay volume. […] Activities are normalized by setting the uninhibited enzyme activity to 100%. IC50 values are calculated using non-linear regression.
Using methods which are described in the above examples or well known in the art, purified, recombinant mutated HPPD enzymes are characterized with respect to their kinetic properties and sensitivity towards HPPD inhibiting herbicides. Apparent michaelis constants (Km) and maximal reaction velocities (Vmax) are calculated by non-linear regression with the software GraphPad Prism 5 (GraphPad Software, La Jolla, USA) using a substrate inhibition model. […] Weighted means (by standard error) of Km and IC50 values are calculated from at least three independent experiments.
as §8, §9

Chain of Scenedesmus Short HPPD (Seq ID: 4) (A0A383WMN4 entry or part of it N195D/DEL398-433): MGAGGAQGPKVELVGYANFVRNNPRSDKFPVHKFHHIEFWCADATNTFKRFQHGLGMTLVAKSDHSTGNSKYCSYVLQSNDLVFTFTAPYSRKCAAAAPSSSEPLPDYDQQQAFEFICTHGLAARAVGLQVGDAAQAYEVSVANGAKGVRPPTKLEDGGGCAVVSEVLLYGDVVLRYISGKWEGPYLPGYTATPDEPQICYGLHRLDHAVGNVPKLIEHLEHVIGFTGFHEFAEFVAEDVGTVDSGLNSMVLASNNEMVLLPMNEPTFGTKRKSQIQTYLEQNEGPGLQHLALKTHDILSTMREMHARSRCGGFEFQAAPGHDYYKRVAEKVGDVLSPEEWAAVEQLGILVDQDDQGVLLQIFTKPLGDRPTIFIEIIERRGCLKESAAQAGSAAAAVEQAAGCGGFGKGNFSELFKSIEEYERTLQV
Chain of Scenedesmus HPPD (Seq ID: 2) (A0A383WMN4 entry or part of it N195D): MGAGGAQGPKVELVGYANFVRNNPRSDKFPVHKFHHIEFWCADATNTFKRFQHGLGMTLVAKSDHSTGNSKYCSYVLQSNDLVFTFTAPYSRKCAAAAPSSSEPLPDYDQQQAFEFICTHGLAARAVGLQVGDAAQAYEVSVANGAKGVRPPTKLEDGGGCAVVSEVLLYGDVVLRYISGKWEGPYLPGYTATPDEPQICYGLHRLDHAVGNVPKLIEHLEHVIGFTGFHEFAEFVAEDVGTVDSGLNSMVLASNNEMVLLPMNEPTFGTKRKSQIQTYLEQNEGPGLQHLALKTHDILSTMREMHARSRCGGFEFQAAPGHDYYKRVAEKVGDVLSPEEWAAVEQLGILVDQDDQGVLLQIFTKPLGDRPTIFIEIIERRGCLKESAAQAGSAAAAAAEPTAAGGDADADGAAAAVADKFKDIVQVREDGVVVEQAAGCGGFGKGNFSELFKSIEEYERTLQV

SMILES: CC[S+]([O-])c1c(Cl)cc(F)c(C(=O)Nc2nnnn2C)c1Cl (centres unmarked) [Inhibitor 9, 2,4-dichloro-3-ethylsulfinyl-6-fluoro-N-(1-methyltetrazol-5-yl)benzamide]
- TI (normalized tolerance index) [1]: 0.1
- TI (normalized tolerance index) [2]: 1.2
- TI (normalized tolerance index) (SoHPPD I419V (short)): 0.3
- TI (normalized tolerance index) (SoHPPD E379Q (short)): 0.2
- TI (normalized tolerance index) (SoHPPD H306K (short)): 0.2
- TI (normalized tolerance index) (SoHPPD I455V): 0.4
- TI (normalized tolerance index) [3]: 0.1
- TI (normalized tolerance index) (SoHPPD V251A (short)): 0.1
- TI (normalized tolerance index) (SoHPPD F363I (short)): not inhibited; also recorded: no inhi-
- TI (normalized tolerance index) (SoHPPD E345Q (short)): 0.2
- TI (normalized tolerance index) (SoHPPD Q317H): 0.1
- TI (normalized tolerance index) [4]: 0.2
- TI (normalized tolerance index) (SoHPPD Q317M (short)): 1.1
- TI (normalized tolerance index) [5]: 1.2
- TI (normalized tolerance index) (SoHPPD L367V, I375L): 0.1
- TI (normalized tolerance index) [6]: 0.1
- TI (normalized tolerance index) [7]: 0.4
- TI (normalized tolerance index) [8]: 0.7
- TI (normalized tolerance index) (SoHPPD F363I): 2,7
- TI (normalized tolerance index) [9]: 0.9
- TI (normalized tolerance index) (SoHPPD Q317H (short)): 0.7
- TI (normalized tolerance index) (SoHPPD A318R, L350M): 0.2
- TI (normalized tolerance index) [10]: 1.0
